Patent US20240245711A1, “A 19-NOR C3,3-DISUBSTITUTED C21-N-PYRAZOLYL STEROID FOR THE TREATMENT OF MAJOR DEPRESSIVE DISORDER” (Sage Therapeutics, Inc., priority 2021, published 2024)
Values joined by “and” are separate entries in the source; they are usually repeats but may differ in a detail not shown here. Equal entries are not always repeated.

Tested on: adult subjects with Major Depressive Disorder
Assay: Phase 3 open-label 1-year study: need for re-treatment (number of and time to re-treatments)
Assay type: in vivo, human
Conditions: for Subjects with No re-treatment (Cycle 1), n (%) / Subjects with Only 1 re-treatment (Cycle 2), n (%) / Subjects with Only 2 re-treatment (Cycle 3), n (%) / Subjects with Only 3 re-treatment (Cycle 4), n (%) / Subjects with Only 4 re-treatment (Cycle 5), n (%): FAS; for Time to re-treatment, Mean (SD): Low Dose Cohort (FAS)
Description: Secondary Objective: To assess the need for re-treatment with Compound (1) following initial treatment in adults with MDD currently experiencing an MDE over a 1-year period, and to assess the response of initial treatment and re-treatment(s) with Compound (1) following an initial 2-week treatment period in adults with MDD currently experiencing an MDE over a 1-year period.
Secondary Endpoints: The need for re-treatment with Compound (1) as assessed by: time to first re-treatment (Kaplan-Meier curves), number of subjects achieving the requirements for re-treatment, number of re-treatment cycles for each subject, the response of initial treatment and/or re-treatment as assessed by: change from baseline in the 17-item Hamilton Rating Scale for Depression (HAM-D) total score at the end of each 14-day treatment (initial and/or re-treatment) period, HAM-D response at the end of each 14-day treatment (initial and/or re-treatment) period, defined as a ≥50% reduction in HAM-D score from baseline, HAM-D remission at the end of each 14-day treatment (initial and/or re-treatment) period, defined as HAM-D total score≤7, Clinical Global Impression-Improvement (CGI-I) response, defined as “much improved” or “very much improved”, at the end of each 14-day treatment (initial and/or re-treatment) period, change from baseline in Clinical Global Impression-Severity (CGI-S) score at the end of each 14-day treatment (initial and/or re-treatment) period.
Subjects who continued in the Observation Period were monitored remotely via PHQ-9 assessment every two weeks. If PHQ-9 score was >=10 at any assessment, PHQ-9 assessment was switch to every week until the score came down below 10 or the subject was dosed with Compound (1) in a subsequent cycle, whichever was earlier. A subject was to come back to the site for HAM-D assessment within a week of PHQ-9 score >=10; if the HAM-D total score >=20 and at least 56 days had elapsed since the last dose of Compound (1), another dosing cycle of Compound (1) were to start. If any of these criteria were not met, the subject couldn't be treated with Compound (1) at that time. Without the trigger of PHQ-9>=10 the subject was to have a clinic visit every 8 weeks. A subject could have at most 5 cycles of treatment within a year. FIG. 2 is a depiction of the eligibility criteria of the study.
The cohorts pertaining to the different doses that the subjects received were defined as following: • 50 mg cohort: This cohort includes subjects who have initiated treatment with 50 mg and received re-treatment with 50 mg only. • 30 mg cohort: This cohort includes subjects who have initiated treatment with 30 mg regardless of the dose they have received in re-treatments. • Low dose cohort: This cohort includes subjects who have initiated treatment with 30 mg and received re-treatment with 30 mg only. • Dose switch cohort: This cohort includes subjects who have received initial treatment with 30 mg and at least one subsequent re-treatment with 50 mg. • Study Period X: starts on the date of the first dose of Compound (1) in cycle X and goes up to one day prior to the first dose of the next cycle. In some embodiments, X is any number from 1 to 5. • Treatment Period X: starts on the date of the first dose of Compound (1) in cycle X and goes up to one day after the last dose in cycle X. In some embodiments, X is any number from 1 to 5. • Treatment Cycle X: starts on the date of the first dose of Compound (1) in cycle X and goes up to 14 days after the last dose in cycle X. The treatment cycles may be denoted as C1-C5. • Observation period X: starts the day after Treatment Cycle X ends and goes up to one day prior to the start of next treatment cycle. In some embodiments, X is any number from 1 to 5.
Analysis Sets: The safety set was defined as all subjects who were administered study drug. The period-specific safety set includes subjects in the safety set who were administered study drug in the corresponding treatment cycle. […]

[1] = ATD Use at Baseline = No, 30 mg Cohort (N = 280)
[2] = ATD Use at Baseline = No, 50 mg Cohort (N = 86)
[3] = ATD Use at Baseline = Yes, 30 mg Cohort (N = 209)
[4] = ATD Use at Baseline = Yes, 50 mg Cohort (N = 60)

C[C@@]1(O)CC[C@H]2[C@H](CC[C@@H]3[C@@H]2CC[C@]2(C)[C@@H](C(=O)Cn4cc(C#N)cn4)CC[C@@H]32)C1 [Compound (1), 1-(2-((3R,5R,8R,9R,10S,13S,14S,17S)-3-hydroxy-3,13-dimethylhexadecahydro-1H-cyclopenta[a]phenanthren-17-yl)-2-oxoethyl)-1H-pyrazole-4-carbonitrile]
Time to re-treatment since last dose in previous cycle, Median (Cycle 5, Dose Switch (FAS)): 58 days | Time to re-treatment since last dose in previous cycle, Min - Max (Cycle 5, Dose Switch (FAS)): 57 to 79 days | n/N: FAS subjects eligible and dosed in Cycle X / eligible for dosing in Cycle X (Cycle 5, Low Dose): 20/34 | Time to re-treatment since last dose in previous cycle, Mean (SD) (Cycle 5, Low Dose (FAS)): 63.2 (7.42) Days | Time to re-treatment since last dose in previous cycle, Median (Cycle 5, Low Dose (FAS)): 60.5 days | Time to re-treatment since last dose in previous cycle, Min - Max (Cycle 5, Low Dose (FAS)): 58 to 86 days | Dosed in at least 1 re-treatment cycle, % of eligible (Dose Switch (80 eligible)): 80 (100%) | Qualified to be retreated in at least 1 more cycle (HAM-D total score >= 20), % of eligible (Dose Switch (80 eligible)): 80 (100%) | Subjects with No re-treatment (Cycle 1), n (%) of FAS (Dose Switch (N = 80)): 0% | Subjects with Only 1 re-treatment (Cycle 2), n (%) of FAS (Dose Switch (N = 80)): 9 (11.3%) | Subjects with Only 2 re-treatment (Cycle 3), n (%) of FAS (Dose Switch (N = 80)): 18 (22.5%) | Subjects with Only 3 re-treatment (Cycle 4), n (%) of FAS (Dose Switch (N = 80)): 30 (37.5%) | Subjects with Only 4 re-treatment (Cycle 5), n (%) of FAS (Dose Switch (N = 80)): 23 (28.8%) | Average (range) number of re-treatments per subject over 1-year follow-up (Dose Switch Cohort): 2.8 (1-4) | FAS Subjects Dosed in C2, n (%) of FAS (Dose Switch Cohort): 80 (100%) | FAS Subjects dosed in C3, n (%) of FAS (Dose Switch Cohort): 71 (88.8%) | FAS Subjects dosed in C4, n (%) of FAS (Dose Switch Cohort): 53 (66.3%) | FAS Subjects dosed in C5, n (%) of FAS (Dose Switch Cohort): 23 (28.8%) | Subjects with No re-treatment (Cycle 1), n (%) [1]: 114 (40.7%) | Subjects with Only 1 re-treatment (Cycle 2), n (%) [1]: 80 (28.6%) | Subjects with Only 2 re-treatment (Cycle 3), n (%) [1]: 31 (11.1%) | Subjects with Only 3 re-treatment (Cycle 4), n (%) [1]: 33 (11.8%) | Subjects with Only 4 re-treatment (Cycle 5), n (%) [1]: 22 (7.9%) | Subjects with No re-treatment (Cycle 1), n (%) [2]: 72 (83.7%) | Subjects with Only 1 re-treatment (Cycle 2), n (%) [2]: 13 (15.1%) | Subjects with Only 2 re-treatment (Cycle 3), n (%) [2]: 1 (1.2%) | Subjects with Only 3 re-treatment (Cycle 4), n (%) [2]: 0% | Subjects with Only 4 re-treatment (Cycle 5), n (%) [2]: 0% | Subjects with No re-treatment (Cycle 1), n (%) [3]: 96 (45.9%) | Subjects with Only 1 re-treatment (Cycle 2), n (%) [3]: 45 (21.5%) | Subjects with Only 2 re-treatment (Cycle 3), n (%) [3]: 27 (12.9%) | Subjects with Only 3 re-treatment (Cycle 4), n (%) [3]: 20 (9.6%) | Subjects with Only 4 re-treatment (Cycle 5), n (%) [3]: 21 (10.0%) | Subjects with No re-treatment (Cycle 1), n (%) [4]: 48 (80.0%) | Subjects with Only 1 re-treatment (Cycle 2), n (%) [4]: 12 (20.0%) | Subjects with Only 2 re-treatment (Cycle 3), n (%) [4]: 0% | Dosed in at least 1 re-treatment cycle, % of eligible (Low Dose (199 of 392 eligible)): 199 0.8%) and 199 (0.8%) | Qualified to be retreated in at least 1 more cycle (HAM-D total score >= 20), % of eligible (Low Dose (392 eligible)): 225 (57.4%) | Subjects with No re-treatment (Cycle 1), n (%) of FAS (Low Dose (N = 409)): 210 (51.3%) | Subjects with Only 1 re-treatment (Cycle 2), n (%) of FAS (Low Dose (N = 409)): 116 (28.4%) | Subjects with Only 2 re-treatment (Cycle 3), n (%) of FAS (Low Dose (N = 409)): 40 (9.8%) and 40 (9.7%) | Subjects with Only 3 re-treatment (Cycle 4), n (%) of FAS (Low Dose (N = 409)): 23 (5.6%) | Subjects with Only 4 re-treatment (Cycle 5), n (%) of FAS (Low Dose (N = 409)): 20 (4.9%) | Average (range) number of re-treatments per subject over 1-year follow-up (Low Dose Cohort): 0.8 (0-4) and 0.8 | Average total number of treatments per subject (Low Dose Cohort): 1.8 | Effect of antidepressant use on length of time between re-treatments (Low Dose Cohort): did not make much difference | FAS Subjects Dosed in C2, n (%) of FAS (Low Dose Cohort): 199 (48.7%) | FAS Subjects dosed in C3, n (%) of FAS (Low Dose Cohort): 83 (20.3%) | FAS Subjects dosed in C4, n (%) of FAS (Low Dose Cohort): 43 (10.5%) | FAS Subjects dosed in C5, n (%) of FAS (Low Dose Cohort): 20 (4.9%) | Time to re-treatment, Mean (SD) (dosed in Cycle 2, ATD use at baseline of previous cycle No): 97.2 (49.59) Days and 97.2 Days | Time to re-treatment, Mean (SD) (dosed in Cycle 2, ATD use at baseline of previous cycle Yes): 103.3 (56.26) Days and 103.3 Days | Time to re-treatment, Mean (SD) (dosed in Cycle 3, ATD use at baseline of previous cycle No): 88.4 (37.52) Days and 88.4 Days | Time to re-treatment, Mean (SD) (dosed in Cycle 3, ATD use at baseline of previous cycle Yes): 85.9 (32.14) Days and 85.9 Days | Time to re-treatment, Mean (SD) (dosed in Cycle 4, ATD use at baseline of previous cycle No): 73.0 (18.40) Days and 73.0 Days | Time to re-treatment, Mean (SD) (dosed in Cycle 4, ATD use at baseline of previous cycle Yes): 71.1 (17.21) Days and 71.1 Days | Time to re-treatment, Mean (SD) (dosed in Cycle 5, ATD use at baseline of previous cycle No): 61.9 (3.28) Days and 61.9 Days | Time to re-treatment, Mean (SD) (dosed in Cycle 5, ATD use at baseline of previous cycle Yes): 64.5 (10.09) Days and 64.5 Days | Re-treatment rates with and without pre-existing antidepressant therapy (in vivo): similar | Mean (range) number of total treatment courses (overall study population): 1.8 (1-5) | Patients not requiring additional treatment courses during their time in the study (overall study population): 43.7%
